In ChEMBL document CHEMBL5518207, “Structure Guided Discovery of Novel Pan Metallo-β-Lactamase Inhibitors with Improved Gram-Negative Bacterial Cell Penetration” (J Med Chem, 2024):

Columns and labels:
[1] = tested on: Pseudomonas aeruginosa; test: Potentiation of imipenem induced antibacterial activity against isogenic efflux deleted mutant Pseudomonas aeruginosa MB9799 harbouring IMP incubated for 18 to 22 hrs imipenem and beta lactamase inhibitor by spectrophotometer based analysis; type: functional; conditions: time 18-22 hrs
[2] = Inhibition of GST tagged IMP-1 (unknown origin) expressed in Escherichia coli BL21 Star (DE3) competent cells using CCF2-FA as substrate incubated for 2 hrs by fluorescence based analysis
[3] = MRT in Beagle dog at 1 mg/kg, iv measured after 24 hrs by HPLC-MS analysis; type: ADME, organism-based, Canis lupus familiaris; conditions: in vivo
[4] = tested on: Pseudomonas aeruginosa; test: Potentiation of imipenem induced antibacterial activity against isogenic efflux wild type Pseudomonas aeruginosa MB9798 harbouring IMP incubated for 18 to 22 hrs imipenem and beta lactamase inhibitor by spectrophotometer based analysis; type: functional; conditions: time 18-22 hrs
[5] = tested on: Klebsiella pneumoniae; test: Potentiation of imipenem induced antibacterial activity against Klebsiella pneumoniae IHMA599644 harbouring VIM-1 incubated for 18 to 22 hrs imipenem by spectrophotometer based analysis; type: functional; conditions: time 18-22 hrs
[6] = Inhibition of GST tagged VIM-2 (unknown origin) expressed in Escherichia coli BL21 Star (DE3) competent cells using CCF2-FA as substrate incubated for 2 hrs by fluorescence based analysis
[7] = biological target: T1, Cytochrome P450 2C8 (Homo sapiens, UniProt P10632); test: Inhibition of CYP2C8 (unknown origin); type: ADME
T1 sequence (P10632 whole entry): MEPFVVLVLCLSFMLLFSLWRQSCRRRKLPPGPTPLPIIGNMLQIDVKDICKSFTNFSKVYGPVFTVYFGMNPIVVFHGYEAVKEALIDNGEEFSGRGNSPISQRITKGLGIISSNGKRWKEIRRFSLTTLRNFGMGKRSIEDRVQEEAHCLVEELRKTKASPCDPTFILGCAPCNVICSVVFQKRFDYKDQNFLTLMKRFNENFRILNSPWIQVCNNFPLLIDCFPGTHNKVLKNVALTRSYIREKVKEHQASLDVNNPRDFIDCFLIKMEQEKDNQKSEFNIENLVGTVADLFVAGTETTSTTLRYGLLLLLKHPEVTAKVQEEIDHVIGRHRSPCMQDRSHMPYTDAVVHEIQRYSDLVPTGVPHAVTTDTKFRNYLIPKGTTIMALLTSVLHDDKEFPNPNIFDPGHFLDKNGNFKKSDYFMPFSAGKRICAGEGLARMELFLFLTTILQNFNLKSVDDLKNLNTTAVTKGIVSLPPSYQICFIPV

[8] = AUC in rat at 1 mg/kg, iv measured after 24 hrs by HPLC-MS analysis; type: ADME, organism-based; conditions: in vivo
[9] = MRT in rat at 1 mg/kg, iv measured after 24 hrs by HPLC-MS analysis; type: ADME, organism-based; conditions: in vivo
[10] = Clearance in Beagle dog at 1 mg/kg, iv measured after 24 hrs by HPLC-MS analysis; type: ADME, organism-based, Canis lupus familiaris; conditions: in vivo
[11] = tested on: Pseudomonas aeruginosa; test: Efflux ratio of MITC95 for potentiation of imipenem induced antibacterial activity against isogenic efflux wild type Pseudomonas aeruginosa MB9798 harbouring IMP to MITC95 for potentiation of imipenem induced antibacterial activity against isogenic efflux deleted mutant Pseudomonas aeruginosa MB9799 harbouring IMP; type: functional
[12] = tested on: Escherichia coli; test: Potentiation of imipenem induced antibacterial activity against Escherichia coli CLB30005 harbouring NDM-1 incubated for 18 to 22 hrs in presence of imipenem by spectrophotometer based analysis; type: functional; conditions: time 18-22 hrs
[13] = biological target: Cytochrome P450 3A4 (Homo sapiens, UniProt P08684); test: Inhibition of CYP3A4 (unknown origin); type: ADME
[14] = Unbound fraction in rat plasma at 1 mg/kg, iv measured after 24 hrs by HPLC-MS analysis; type: ADME, organism-based
[15] = Clearance in rat at 1 mg/kg, iv measured after 24 hrs by HPLC-MS analysis; type: ADME, organism-based; conditions: in vivo
[16] = biological target: Cytochrome P450 2C9 (Homo sapiens, UniProt P11712); test: Inhibition of CYP2C9 (unknown origin); type: ADME
[17] = Cmax in rat at 1 mg/kg, iv measured after 24 hrs by HPLC-MS analysis; type: ADME, organism-based; conditions: in vivo
[18] = Cmax in Beagle dog at 1 mg/kg, iv measured after 24 hrs by HPLC-MS analysis; type: ADME, organism-based, Canis lupus familiaris; conditions: in vivo
[19] = biological target: Cytochrome P450 2D6 (Homo sapiens, UniProt P10635); test: Inhibition of CYP2D6 (unknown origin); type: ADME
[20] = Unbound fraction in Beagle dog plasma at 1 mg/kg, iv measured after 24 hrs by HPLC-MS analysis; type: ADME, organism-based, Canis lupus familiaris
[21] = AUC in Beagle dog at 1 mg/kg, iv measured after 24 hrs by HPLC-MS analysis; type: ADME, organism-based, Canis lupus familiaris; conditions: in vivo
[22] = biological target: Voltage-gated inwardly rectifying potassium channel KCNH2 (Homo sapiens, UniProt Q12809); test: Inhibition of human ERG; type: toxicity
[23] = biological target: Sodium channel protein type 5 subunit alpha (Homo sapiens, UniProt Q14524); test: Inhibition of NaV 1.5 channel (unknown origin)
[24] = Inhibition of GST tagged VIM-1 (unknown origin) expressed in Escherichia coli BL21 Star (DE3) competent cells using CCF2-FA as substrate incubated for 2 hrs by fluorescence based analysis
[25] = Volume of distribution at steady state in rat at 1 mg/kg, iv measured after 24 hrs by HPLC-MS analysis; type: ADME, organism-based; conditions: in vivo, read-out: Vdss
[26] = Inhibition of GST tagged NDM-1 (unknown origin) expressed in Escherichia coli BL21 Star (DE3) competent cells using CCF2-FA as substrate incubated for 2 hrs by fluorescence based analysis
[27] = Toxicity in Beagle dog assessed as severe adverse effect at 1 mg/kg, iv measured after 24 hrs by HPLC-MS analysis; type: organism-based, Canis lupus familiaris; conditions: in vivo
[28] = biological target: Voltage-dependent L-type calcium channel subunit alpha-1C (Homo sapiens, UniProt Q13936); test: Inhibition of Cav1.2 channel (unknown origin)
[29] = biological target: Voltage-gated potassium channel, IKs; KCNQ1(Kv7.1)/KCNE1(MinK) (Homo sapiens, UniProt P15382+P51787); test: Inhibition of KCNQ1/KCNE1 (unknown origin); type: protein-complex assay
[30] = tested on: Serratia marcescens; test: Potentiation of imipenem induced antibacterial activity against Serratia marcescens CL5741 harbouring IMP-1 incubated for 18 to 22 hrs imipenem by spectrophotometer based analysis; type: functional; conditions: time 18-22 hrs
[31] = Volume of distribution at steady state in Beagle dog at 1 mg/kg, iv measured after 24 hrs by HPLC-MS analysis; type: ADME, organism-based, Canis lupus familiaris; conditions: in vivo, read-out: Vdss
[32] = Cmax in Wistar rat at 90 mg/kg, iv measured after 24 hrs by HPLC-MS analysis; type: ADME, organism-based; conditions: in vivo
[33] = MRT in rat at 5 mg/kg, iv measured after 24 hrs by HPLC-MS analysis; type: ADME, organism-based; conditions: in vivo
[34] = Clearance in rat at 5 mg/kg, iv measured after 24 hrs by HPLC-MS analysis; type: ADME, organism-based; conditions: in vivo
[35] = Toxicity in Beagle dog assessed as increase in histamine level in plasma at 1 mg/kg, iv measured upto 24 hrs by HPLC-MS analysis; type: organism-based, Canis lupus familiaris; conditions: in vivo
[36] = Toxicity in Beagle dog assessed as decrease in activity at 1 mg/kg, iv measured after 24 hrs by HPLC-MS analysis; type: organism-based, Canis lupus familiaris; conditions: in vivo
[37] = Cmax in rat at 5 mg/kg, iv measured after 24 hrs by HPLC-MS analysis; type: ADME, organism-based; conditions: in vivo
[38] = Toxicity in Beagle dog assessed as vocalization at 1 mg/kg, iv measured after 24 hrs by HPLC-MS analysis; type: organism-based, Canis lupus familiaris; conditions: in vivo
[39] = Toxicity in Beagle dog assessed as emesis at 1 mg/kg, iv measured after 24 hrs by HPLC-MS analysis; type: organism-based, Canis lupus familiaris; conditions: in vivo
[40] = Toxicity in Beagle dog assessed as increase in respiration at 1 mg/kg, iv measured after 24 hrs by HPLC-MS analysis; type: organism-based, Canis lupus familiaris; conditions: in vivo
[41] = Volume of distribution at steady state in rat at 5 mg/kg, iv measured after 24 hrs by HPLC-MS analysis; type: ADME, organism-based; conditions: in vivo, read-out: Vdss
[42] = AUC in rat at 5 mg/kg, iv measured after 24 hrs by HPLC-MS analysis; type: ADME, organism-based; conditions: in vivo
[43] = Unbound fraction in rat plasma at 5 mg/kg, iv measured after 24 hrs by HPLC-MS analysis; type: ADME, organism-based
[44] = Toxicity in Beagle dog assessed as appearance of watery eyes at 1 mg/kg, iv measured after 24 hrs by HPLC-MS analysis; type: organism-based, Canis lupus familiaris; conditions: in vivo

Sequence of Voltage-gated potassium channel, IKs; KCNQ1(Kv7.1)/KCNE1(MinK) (P51787 whole entry): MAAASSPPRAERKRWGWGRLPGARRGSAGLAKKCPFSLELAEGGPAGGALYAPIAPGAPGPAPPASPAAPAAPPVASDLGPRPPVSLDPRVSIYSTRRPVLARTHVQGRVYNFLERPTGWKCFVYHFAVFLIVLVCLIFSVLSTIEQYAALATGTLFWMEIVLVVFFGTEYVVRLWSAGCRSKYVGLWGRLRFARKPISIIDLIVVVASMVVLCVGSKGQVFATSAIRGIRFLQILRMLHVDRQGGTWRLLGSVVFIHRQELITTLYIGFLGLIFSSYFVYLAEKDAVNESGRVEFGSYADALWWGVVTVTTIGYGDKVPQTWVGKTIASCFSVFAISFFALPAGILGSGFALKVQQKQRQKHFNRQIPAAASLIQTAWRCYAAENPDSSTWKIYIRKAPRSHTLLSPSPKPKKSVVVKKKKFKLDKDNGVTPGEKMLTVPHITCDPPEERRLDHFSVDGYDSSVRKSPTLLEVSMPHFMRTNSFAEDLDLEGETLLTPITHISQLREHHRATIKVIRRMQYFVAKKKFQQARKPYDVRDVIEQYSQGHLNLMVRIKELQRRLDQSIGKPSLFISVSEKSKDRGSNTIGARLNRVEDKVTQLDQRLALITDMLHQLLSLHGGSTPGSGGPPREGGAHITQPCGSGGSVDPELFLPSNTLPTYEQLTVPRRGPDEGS
Sequence of Cytochrome P450 2D6 (P10635 whole entry): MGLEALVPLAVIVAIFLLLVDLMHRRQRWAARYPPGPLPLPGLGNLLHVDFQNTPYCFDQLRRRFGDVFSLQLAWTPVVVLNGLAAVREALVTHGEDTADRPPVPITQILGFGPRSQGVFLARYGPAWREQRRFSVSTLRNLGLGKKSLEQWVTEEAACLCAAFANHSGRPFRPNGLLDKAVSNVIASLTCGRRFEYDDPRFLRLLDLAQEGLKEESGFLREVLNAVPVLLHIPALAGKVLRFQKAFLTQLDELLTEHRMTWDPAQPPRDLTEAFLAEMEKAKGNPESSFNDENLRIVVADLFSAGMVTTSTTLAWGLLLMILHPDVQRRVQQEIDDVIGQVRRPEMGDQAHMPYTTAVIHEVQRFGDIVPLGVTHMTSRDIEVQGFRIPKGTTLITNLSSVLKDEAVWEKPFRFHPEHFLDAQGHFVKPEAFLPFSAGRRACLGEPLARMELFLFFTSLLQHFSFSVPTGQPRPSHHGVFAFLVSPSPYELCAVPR
Sequence of Cytochrome P450 3A4 (P08684 whole entry): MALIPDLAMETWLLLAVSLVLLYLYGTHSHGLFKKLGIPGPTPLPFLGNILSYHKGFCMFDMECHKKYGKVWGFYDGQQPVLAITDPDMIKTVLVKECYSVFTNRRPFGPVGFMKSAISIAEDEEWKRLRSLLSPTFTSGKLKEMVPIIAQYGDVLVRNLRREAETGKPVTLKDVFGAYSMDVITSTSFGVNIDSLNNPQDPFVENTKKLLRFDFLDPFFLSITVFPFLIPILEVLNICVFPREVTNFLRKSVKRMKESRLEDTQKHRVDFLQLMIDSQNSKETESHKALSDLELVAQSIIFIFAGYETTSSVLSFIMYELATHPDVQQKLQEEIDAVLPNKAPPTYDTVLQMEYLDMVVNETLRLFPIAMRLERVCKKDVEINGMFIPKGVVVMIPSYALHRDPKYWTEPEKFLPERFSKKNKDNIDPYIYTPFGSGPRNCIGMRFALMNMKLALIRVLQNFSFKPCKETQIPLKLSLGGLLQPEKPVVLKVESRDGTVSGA
Sequence of Sodium channel protein type 5 subunit alpha (Q14524 whole entry): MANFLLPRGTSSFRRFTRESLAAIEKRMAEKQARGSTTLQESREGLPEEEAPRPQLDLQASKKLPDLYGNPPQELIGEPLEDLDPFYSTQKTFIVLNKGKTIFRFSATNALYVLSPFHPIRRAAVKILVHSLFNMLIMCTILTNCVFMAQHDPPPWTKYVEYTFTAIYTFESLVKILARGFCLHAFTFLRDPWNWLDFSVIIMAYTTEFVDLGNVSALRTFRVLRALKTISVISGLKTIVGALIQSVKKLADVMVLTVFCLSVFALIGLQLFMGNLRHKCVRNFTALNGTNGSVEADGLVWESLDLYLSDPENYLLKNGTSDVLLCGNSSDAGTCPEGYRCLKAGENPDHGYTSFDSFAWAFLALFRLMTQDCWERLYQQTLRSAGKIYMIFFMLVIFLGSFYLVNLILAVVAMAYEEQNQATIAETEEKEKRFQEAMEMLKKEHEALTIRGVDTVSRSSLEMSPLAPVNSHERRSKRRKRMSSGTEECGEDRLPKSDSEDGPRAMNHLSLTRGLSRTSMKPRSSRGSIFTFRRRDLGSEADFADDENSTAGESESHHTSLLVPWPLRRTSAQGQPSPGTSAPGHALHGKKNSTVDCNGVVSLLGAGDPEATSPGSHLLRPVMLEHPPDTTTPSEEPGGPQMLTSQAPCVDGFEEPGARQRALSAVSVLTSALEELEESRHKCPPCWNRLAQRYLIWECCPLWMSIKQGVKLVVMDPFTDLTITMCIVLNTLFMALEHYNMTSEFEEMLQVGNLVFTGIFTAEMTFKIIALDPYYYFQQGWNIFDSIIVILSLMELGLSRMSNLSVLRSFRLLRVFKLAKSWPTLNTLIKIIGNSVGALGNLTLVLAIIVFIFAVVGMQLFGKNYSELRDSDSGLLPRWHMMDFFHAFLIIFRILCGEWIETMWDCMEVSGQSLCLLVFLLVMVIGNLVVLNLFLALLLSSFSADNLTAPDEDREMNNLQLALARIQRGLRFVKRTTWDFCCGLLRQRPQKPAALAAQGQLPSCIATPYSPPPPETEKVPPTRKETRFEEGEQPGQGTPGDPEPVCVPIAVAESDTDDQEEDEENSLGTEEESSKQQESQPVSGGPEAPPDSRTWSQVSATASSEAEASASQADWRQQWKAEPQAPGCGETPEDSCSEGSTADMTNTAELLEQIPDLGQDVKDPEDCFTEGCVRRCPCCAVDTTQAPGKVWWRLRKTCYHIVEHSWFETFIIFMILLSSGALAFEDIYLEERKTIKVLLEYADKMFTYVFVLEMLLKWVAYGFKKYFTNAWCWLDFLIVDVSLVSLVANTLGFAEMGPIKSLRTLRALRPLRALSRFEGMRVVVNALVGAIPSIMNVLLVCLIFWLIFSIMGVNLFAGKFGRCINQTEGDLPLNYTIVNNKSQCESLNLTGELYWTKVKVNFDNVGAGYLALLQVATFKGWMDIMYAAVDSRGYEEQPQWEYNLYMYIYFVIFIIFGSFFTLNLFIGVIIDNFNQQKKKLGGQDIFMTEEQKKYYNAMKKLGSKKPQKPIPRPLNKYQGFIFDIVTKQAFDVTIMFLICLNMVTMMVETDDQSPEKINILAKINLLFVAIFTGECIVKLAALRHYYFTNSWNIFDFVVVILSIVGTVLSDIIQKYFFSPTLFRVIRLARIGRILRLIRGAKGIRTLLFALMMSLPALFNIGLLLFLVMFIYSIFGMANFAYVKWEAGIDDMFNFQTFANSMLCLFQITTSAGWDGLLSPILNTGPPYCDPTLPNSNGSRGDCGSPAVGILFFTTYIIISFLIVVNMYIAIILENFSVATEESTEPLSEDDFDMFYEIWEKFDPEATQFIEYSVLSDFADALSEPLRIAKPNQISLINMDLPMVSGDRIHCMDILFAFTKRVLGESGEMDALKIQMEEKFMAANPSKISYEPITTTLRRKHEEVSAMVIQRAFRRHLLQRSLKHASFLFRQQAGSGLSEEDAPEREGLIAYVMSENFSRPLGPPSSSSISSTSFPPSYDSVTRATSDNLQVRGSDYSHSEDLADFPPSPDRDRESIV
Sequence of Voltage-gated inwardly rectifying potassium channel KCNH2 (Q12809 whole entry): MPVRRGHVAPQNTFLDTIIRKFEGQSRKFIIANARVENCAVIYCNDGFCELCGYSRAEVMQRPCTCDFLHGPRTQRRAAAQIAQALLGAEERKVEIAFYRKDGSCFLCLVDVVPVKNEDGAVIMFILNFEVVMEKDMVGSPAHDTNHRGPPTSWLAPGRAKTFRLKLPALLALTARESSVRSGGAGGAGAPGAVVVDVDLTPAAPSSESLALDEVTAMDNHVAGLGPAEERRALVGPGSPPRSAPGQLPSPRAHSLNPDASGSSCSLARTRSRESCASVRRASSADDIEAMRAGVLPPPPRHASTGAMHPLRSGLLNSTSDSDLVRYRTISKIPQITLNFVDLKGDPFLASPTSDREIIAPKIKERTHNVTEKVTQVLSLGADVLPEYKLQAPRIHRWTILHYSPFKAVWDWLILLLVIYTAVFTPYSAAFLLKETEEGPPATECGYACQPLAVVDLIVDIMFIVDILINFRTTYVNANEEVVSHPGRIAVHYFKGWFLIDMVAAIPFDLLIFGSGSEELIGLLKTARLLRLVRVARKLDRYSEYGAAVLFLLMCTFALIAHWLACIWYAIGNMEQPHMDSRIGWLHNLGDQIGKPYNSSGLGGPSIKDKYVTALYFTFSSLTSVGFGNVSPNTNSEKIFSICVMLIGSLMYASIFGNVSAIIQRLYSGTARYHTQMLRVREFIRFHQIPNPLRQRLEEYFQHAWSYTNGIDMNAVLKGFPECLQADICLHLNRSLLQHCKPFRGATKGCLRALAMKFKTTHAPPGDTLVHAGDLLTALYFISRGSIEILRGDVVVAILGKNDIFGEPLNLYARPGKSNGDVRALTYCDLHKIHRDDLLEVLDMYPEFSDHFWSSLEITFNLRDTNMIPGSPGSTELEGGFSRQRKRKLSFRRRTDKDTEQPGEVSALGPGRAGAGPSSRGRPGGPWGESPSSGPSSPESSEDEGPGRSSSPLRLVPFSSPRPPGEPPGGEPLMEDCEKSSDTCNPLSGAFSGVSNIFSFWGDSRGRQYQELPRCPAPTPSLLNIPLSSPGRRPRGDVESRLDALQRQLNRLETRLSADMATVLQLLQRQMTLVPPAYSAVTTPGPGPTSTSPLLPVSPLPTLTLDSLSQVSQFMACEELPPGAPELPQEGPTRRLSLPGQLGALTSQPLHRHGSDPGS

| Compound | MITC95 [1] [µM] | IC50 [2] [µM] | MITC95 [4] [µM] | MITC95 [5] [µM] | IC50 [6] [µM] | AUC at 24 h [8] [µM·h] | MRT [9] [h] | Ratio [11] | MITC95 [12] [µM] | fraction unbound at 24 h [14] | clearance [15] [mL/min/kg] | Cmax [17] [µM] | Cmax [18] [µM] | IC50 [24] [µM] | Vd [25] [L/kg] | IC50 [26] [µM] | MITC95 [30] [µM] | further results |
| --- | --- | --- | --- | --- | --- | --- | --- | --- | --- | --- | --- | --- | --- | --- | --- | --- | --- | --- |
| Nc1nc2cccc(-c3ccc(C(F)(F)F)c(S(N)(=O)=O)c3-c3nnn[nH]3)c2[nH]1 | 0.78 | 0.0038 | 25 | 1.6 | 0.0013 | 4.1 | 0.66 | 32 | 0.4 | 0.065 | 9.6 | 10.8 | 9 | 0.0003 | 0.38 | 0.0001 | 0.8 | MRT [3]: 1.72 h; IC50 [7]: > 50 µM; clearance [10]: 9.1 mL/min/kg; IC50 [13]: > 50 µM; IC50 [16]: > 50 µM; IC50 [19]: > 50 µM; fraction unbound at 24 h [20]: 0.26; AUC at 24 h [21]: 4.34 µM·h; IC50 [22]: > 30 µM; IC50 [23]: > 30 µM; Activity [27]: Non-Toxic; IC50 [28]: > 30 µM; IC50 [29]: > 30 µM; Vd [31]: 0.94 L/kg |
| Nc1ccc(-c2ccc(CC3CCNCC3)c(S(N)(=O)=O)c2-c2nn[nH]n2)cn1 | 12.5 | 0.164 | 50 | 4.2 | 0.14 | 11.7 | 1.21 | 4 | 0.6 | 0.47 | 3.5 | 16.3 |  | 0.025 | 0.25 | 0.012 | 6.3 | Cmax [32]: 791 µM |
| NS(=O)(=O)c1c(C[C@H]2CC[C@H](N)CC2)ccc(-c2ccc(C3CNC3)cc2)c1-c1nn[nH]n1 | 1.6 | 0.043 | 18 | 1.6 |  |  |  | 11 | 0.8 |  |  |  | 9.3 | 0.001 |  | 0.004 | 3.1 | MRT [33]: 3.13 h; clearance [34]: 2.2 mL/min/kg; Activity [35]: Toxic; Activity [36]: Toxic; Cmax [37]: 84.3 µM; Activity [38]: Toxic; Activity [39]: Toxic; Activity [40]: Toxic; Vd [41]: 0.39 L/kg; AUC at 24 h [42]: 83.7 µM·h; fraction unbound at 24 h [43]: 0.42; Activity [44]: Toxic |
